According to patent US8906868B2, “Aminoglycoside derivatives” (Rempex Pharmaceuticals, Inc., priority 2010, dated 2014):
Converted amounts (≈) assume the structure as drawn. Where two headings read alike, the source gives them in different places.

Experiments:
[1] = tested on: Pseudomonas aeruginosa (ATCC 27853); assay: MIC, broth microdilution; settings: for MIC: Pseudomonas aeruginosa
ACM1005 ATCC 19004 = assay: MIC, broth microdilution; assay type: cell-based, Acinetobacter baumannii; settings: for MIC: Acinetobacter baumannii, ATCC19004, Table 4, read-out: Compound MIC on Bacterial Strains: Acinetobacter baumannii ACM1005 ATCC 19004
Description: (§1) To compare microbiological activity of the test compounds, minimum inhibitory concentrations (MIC.s) were determined. Antibiotic MICs were obtained using the broth microdilution method according to Clinical and Laboratory Standards Institute (CLSI) approved guidelines (Methods for dilution antimicrobial susceptibility tests for bacteria that grow aerobically; approved standard—7th ed. CLSI document M7-A7. Clinical and Laboratory Standards Institute, Wayne, Pa., incorporated herein by reference in its entirety). Antibiotics were dissolved as specified by CLSI (Performance standards for antimicrobial susceptibility testing; Seventeenth informational supplement. CLSI document M100-S17. Clinical and Laboratory Standards Institute, Wayne, Pa., incorporated herein by reference in its entirety), and were serially diluted 2-fold in cation adjusted Mueller Hinton Broth (CaMHB) at 2× concentration. Bacterial inoculums were prepared in CaMHB by suspension of a colony from an agar plate that was prepared the previous day to obtain a final concentration of 5×10^5CFU/ml. The plates were incubated for 18 hours at 35° C. […] MIC.s were determined by reading the turbidity of plate wells using a SpectraMax Plus384 plate reader (Molecular Devices, Sunnyvale, Calif., USA) at 600 nm and were confirmed by visual inspection.

PAM3072 aac(6′)-II = assay: microbe, parasite or virus in culture; assay type: cell-based, Pseudomonas aeruginosa; settings: for MIC: Pseudomonas aeruginosa, Table 5, read-out: Compound MIC on Bacterial Strains: Pseudomonas aeruginosa PAM3072 aac(6′)-II
Description: as §1

PAM3073 aac(6′)-I = assay: microbe, parasite or virus in culture; assay type: cell-based, Pseudomonas aeruginosa; settings: for MIC: Pseudomonas aeruginosa, Table 5, read-out: Compound MIC on Bacterial Strains: Pseudomonas aeruginosa PAM3073 aac(6′)-I
Description: as §1

EC1001 acc(6′)-Ib = assay: microbe, parasite or virus in culture; assay type: cell-based, Escherichia coli; settings: for MIC: Escherichia coli, Table 4, read-out: Compound MIC on Bacterial Strains: Escherichia coli EC1001 acc(6′)-Ib
Description: as §1

[2] = tested on: ECM6007 aac(6′) + aph(2″); assay: microbe, parasite or virus in culture; assay type: cell-based, Escherichia coli; settings: for MIC: Escherichia coli, 18 h, Table 4, read-out: Compound MIC on Bacterial Strains: Escherichia coli ECM6007 aac(6′) + aph(2″)
Description: as §1

ACM1006 acc(6′)-Ib = assay: microbe, parasite or virus in culture; assay type: cell-based, Acinetobacter baumannii; settings: for MIC: Acinetobacter baumannii, Table 4, read-out: Compound MIC on Bacterial Strains: Acinetobacter baumannii ACM1006 acc(6′)-Ib
Description: as §1

ECM6010 ant(2″)-I = assay: microbe, parasite or virus in culture; assay type: cell-based, Escherichia coli; settings: for MIC: Escherichia coli, read-out: Compound MIC on Bacterial Strains: ECM6010 ant(2″)-I
Description: as §1
(§2) Activity of the test compounds was determined using QC strains and strains with known aminoglycoside resistance mechanisms (TABLE 3). This specific panel contained strains expressing enzymes that covalently modify N2″, N3 and N3′ positions.

ECM6006 aph(3′)-III = assay: microbe, parasite or virus in culture; assay type: cell-based, Escherichia coli; settings: for MIC: Escherichia coli, read-out: Compound MIC on Bacterial Strains: ECM6006 aph(3′)-III
Description: as §1, §2

ECM6009 aac(3)-II = assay: microbe, parasite or virus in culture; assay type: cell-based, Escherichia coli; settings: for MIC: Escherichia coli, read-out: Compound MIC on Bacterial Strains: ECM6009 aac(3)-II
Description: as §1, §2

ECM6011 aph(3′)-I = assay: microbe, parasite or virus in culture; assay type: cell-based, Escherichia coli; settings: for MIC: Escherichia coli, read-out: Compound MIC on Bacterial Strains: ECM6011 aph(3′)-I
Description: as §1, §2

ECM6003 rmtB = assay: microbe, parasite or virus in culture; assay type: cell-based, Escherichia coli; settings: for MIC: Escherichia coli, Table 3, read-out: Compound MIC on Bacterial Strains: ECM6003 rmtB
Description: as §1, §2
The panel also contained a strain expressing ribosomal RNA methylase, RmtB.

[3] = tested on: Klebsiella pneumonia (ATCC 43816); assay: MIC, broth microdilution; settings: Klebsiella pneumoniae, ATCC43816, read-out: Compound MIC on Bacterial Strains: K. pneumonia ATCC 43816
Sa 287 aac(6′) + aph(2″) = assay: microbe, parasite or virus in culture; assay type: cell-based, Staphylococcus aureus; settings: for MIC: Staphylococcus aureus, 18 h, Table 5, read-out: Compound MIC on Bacterial Strains: Staphylococcus aureus Sa 287 aac(6′) + aph(2″)
Description: as §1

[4] = tested on: Acinetobacter baumannii (ATCC 19606); assay: MIC, broth microdilution; settings: Acinetobacter baumannii, ATCC19606, read-out: Compound MIC on Bacterial Strains: A. baumannii ATCC 19606
EC1002 aph(3′)-IV = assay: organism not typed; assay type: cell-based; settings: for MIC: read-out: Compound MIC on Bacterial Strains: EC1002 aph(3′)-IV
Description: as §1, §2

[5] = tested on: Staphylococcus aureus (ATCC 29213); assay: MIC, broth microdilution; settings: for MIC: Staphylococcus aureus
[6] = tested on: Escherichia coli (ATCC 25922); assay: MIC, broth microdilution; settings: for MIC: Escherichia coli
[7] = ATCC27853, read-out: Compound MIC on Bacterial Strains: P. aeruginosa ATCC 27853
[8] = ATCC27853, read-out: Compound MIC on Bacterial Strains: Pseudomonas aeruginosa PAM3034 ATCC 27853
[9] = ATCC29213, read-out: Compound MIC on Bacterial Strains: S. aureus ATCC 29213, QC strain, Table 2
[10] = ATCC29213, read-out: Compound MIC on Bacterial Strains: Staphylococcus aureus SAM1000 ATCC 29213, Table 5
[11] = ATCC25922, read-out: Compound MIC on Bacterial Strains: E. coli ATCC 25922
[12] = ATCC25922, read-out: Compound MIC on Bacterial Strains: ECM6000 ATCC 25922
[13] = ATCC25922, read-out: Compound MIC on Bacterial Strains: Escherichia coli ECM6000 ATCC 25922

Compound | MIC [1, 7] [µg/mL] | MIC [1, 8] [µg/mL] | MIC (ACM1005 ATCC 19004) [µg/mL] | MIC (PAM3072 aac(6′)-II) [µg/mL] | MIC (PAM3073 aac(6′)-I) [µg/mL] | MIC (EC1001 acc(6′)-Ib) [µg/mL] | MIC [2] [µg/mL] | MIC (ACM1006 acc(6′)-Ib) [µg/mL] | MIC (ECM6010 ant(2″)-I) [µg/mL] | MIC (ECM6006 aph(3′)-III) [µg/mL] | MIC (ECM6009 aac(3)-II) [µg/mL] | MIC (ECM6011 aph(3′)-I) [µg/mL] | MIC (ECM6003 rmtB) [µg/mL] | MIC [3] [µg/mL] | MIC (Sa 287 aac(6′) + aph(2″)) [µg/mL] | MIC [4] [µg/mL] | MIC (EC1002 aph(3′)-IV) [µg/mL] | MIC [5, 9] [µg/mL] | MIC [5, 10] [µg/mL] | MIC [6, 11] [µg/mL] | further results
CN[C@@H]1C(O)[C@@H](OC2C(O)C(O[C@H]3O[C@H](CN)CCC3N)[C@@H](N)C[C@H]2NC(=O)[C@@H](O)[C@@H](O)CN)OCC1(C)O (stereo partly drawn) [Compound 21, (2S,3R)-4-amino-N-((1R,2S,3S,4R,5S)-5-amino-4-((2R,3R,6S)-3-amino-6-(aminomethyl)tetrahydro-2H-pyran-2-vyloxy)-2-((2R,3R,4R,5R)-3,5-dihydroxy-5-methyl-4-(methylamino)tetrahydro-2H-pyran-2-yloxy)-3-hydroxycyclohexyl)-2,3-dihydroxybutanamide] | < 1 | 1 to 8 (≈ 1.76 to 14.1 µM) | 1 to 8 (≈ 1.76 to 14.1 µM) | > 8 | 1 to 8 (≈ 1.76 to 14.1 µM) | > 8 | < 1 | 1 to 8 (≈ 1.76 to 14.1 µM) | < 1 | 1 to 8 (≈ 1.76 to 14.1 µM) | < 1 | 1 to 8 (≈ 1.76 to 14.1 µM) | 1 to 8 (≈ 1.76 to 14.1 µM) | < 1 | 1 to 8 | > 8 | 1 to 8 (≈ 1.76 to 14.1 µM) | < 1 | < 1 | < 1 | MIC [6, 12]: 1 to 8 µg/mL (≈ 1.76 to 14.1 µM); MIC [6, 13]: 1 to 8 µg/mL (≈ 1.76 to 14.1 µM)
NC[C@H]1O[C@H](O[C@H]2[C@H](O)[C@@H](O[C@H]3O[C@H](CO)[C@@H](O)[C@H](N)[C@H]3O)[C@H](N)C[C@@H]2N)[C@H](N)C[C@@H]1O [Tobramycin, reference compound] | < 1 | < 1 | < 1 | > 8 | > 8 | > 8 | > 8 | > 8 | > 8 | 1 to 8 (≈ 2.14 to 17.1 µM) | > 8 | 1 to 8 (≈ 2.14 to 17.1 µM) | > 8 | < 1 | > 8 | 1 to 8 (≈ 2.14 to 17.1 µM) | < 1 | < 1 | < 1 | < 1 | MIC [6, 12]: < 1 µg/mL; MIC [6, 13]: < 1 µg/mL
Gentamicin C1a [reference compound] |  |  |  |  |  |  |  |  |  |  |  |  |  |  |  |  |  |  |  |  | Compound MIC on Bacterial Strains: Pseudomonas aeruginosa PAM3034 ATCC 27853 [1]: A (key: A: MIC of 1 μg/ml or less; B: MIC of greater than 1 μg/ml to 8 μg/ml; MIC of greater than 8 μg/ml); Compound MIC on Bacterial Strains: Acinetobacter baumannii ACM1005 ATCC 19004 (ACM1005 ATCC 19004): A (key: A: MIC of 1 μg/ml or less; B: MIC of greater than 1 μg/ml to 8 μg/ml; MIC of greater than 8 μg/ml); Compound MIC on Bacterial Strains: Pseudomonas aeruginosa PAM3072 aac(6′)-II (PAM3072 aac(6′)-II): C (key: A: MIC of 1 μg/ml or less; B: MIC of greater than 1 μg/ml to 8 μg/ml; MIC of greater than 8 μg/ml); Compound MIC on Bacterial Strains: Pseudomonas aeruginosa PAM3073 aac(6′)-I (PAM3073 aac(6′)-I): B (key: A: MIC of 1 μg/ml or less; B: MIC of greater than 1 μg/ml to 8 μg/ml; MIC of greater than 8 μg/ml); Compound MIC on Bacterial Strains: Escherichia coli EC1001 acc(6′)-Ib (EC1001 acc(6′)-Ib): C (key: A: MIC of 1 μg/ml or less; B: MIC of greater than 1 μg/ml to 8 μg/ml; MIC of greater than 8 μg/ml); Compound MIC on Bacterial Strains: Escherichia coli ECM6007 aac(6′) + aph(2″) [2]: B (key: A: MIC of 1 μg/ml or less; B: MIC of greater than 1 μg/ml to 8 μg/ml; MIC of greater than 8 μg/ml); Compound MIC on Bacterial Strains: Acinetobacter baumannii ACM1006 acc(6′)-Ib (ACM1006 acc(6′)-Ib): C (key: A: MIC of 1 μg/ml or less; B: MIC of greater than 1 μg/ml to 8 μg/ml; MIC of greater than 8 μg/ml); Compound MIC on Bacterial Strains: ECM6010 ant(2″)-I (ECM6010 ant(2″)-I): C (key: A: MIC of 1 μg/ml or less; B: MIC of greater than 1 μg/ml to 8 μg/ml; MIC of greater than 8 μg/ml); Compound MIC on Bacterial Strains: ECM6006 aph(3′)-III (ECM6006 aph(3′)-III): B (key: A: MIC of 1 μg/ml or less; B: MIC of greater than 1 μg/ml to 8 μg/ml; MIC of greater than 8 μg/ml); Compound MIC on Bacterial Strains: ECM6009 aac(3)-II (ECM6009 aac(3)-II): C (key: A: MIC of 1 μg/ml or less; B: MIC of greater than 1 μg/ml to 8 μg/ml; MIC of greater than 8 μg/ml); Compound MIC on Bacterial Strains: ECM6011 aph(3′)-I (ECM6011 aph(3′)-I): B (key: A: MIC of 1 μg/ml or less; B: MIC of greater than 1 μg/ml to 8 μg/ml; MIC of greater than 8 μg/ml); Compound MIC on Bacterial Strains: ECM6003 rmtB (ECM6003 rmtB): C (key: A: MIC of 1 μg/ml or less; B: MIC of greater than 1 μg/ml to 8 μg/ml; MIC of greater than 8 μg/ml); Compound MIC on Bacterial Strains: Staphylococcus aureus Sa 287 aac(6′) + aph(2″) (Sa 287 aac(6′) + aph(2″)): C (key: A: MIC of 1 μg/ml or less; B: MIC of greater than 1 μg/ml to 8 μg/ml; MIC of greater than 8 μg/ml); Compound MIC on Bacterial Strains: EC1002 aph(3′)-IV (EC1002 aph(3′)-IV): A (key: A: MIC of 1 μg/ml or less; B: MIC of greater than 1 μg/ml to 8 μg/ml; MIC of greater than 8 μg/ml); Compound MIC on Bacterial Strains: Staphylococcus aureus SAM1000 ATCC 29213 [5]: A (key: A: MIC of 1 μg/ml or less; B: MIC of greater than 1 μg/ml to 8 μg/ml; MIC of greater than 8 μg/ml); Compound MIC on Bacterial Strains: ECM6000 ATCC 25922 [6]: A (key: A: MIC of 1 μg/ml or less; B: MIC of greater than 1 μg/ml to 8 μg/ml; MIC of greater than 8 μg/ml); Compound MIC on Bacterial Strains: Escherichia coli ECM6000 ATCC 25922 [6]: A (key: A: MIC of 1 μg/ml or less; B: MIC of greater than 1 μg/ml to 8 μg/ml; MIC of greater than 8 μg/ml)
